{
  "source": "patent US20180243387A1",
  "about": "“TECHNOLOGY FOR C[…] CELLS” (RIKEN, priority 2017, published 2018)",
  "format_in_all_cases": "cell-based, mice",
  "key": {"[1]": {"test_system": "type I interferon INF-α", "test": "Production of type I interferon INF-α in naïve CD4SP T cells by ELISA", "settings": "for effect of increasing production of INF-α by cGAMP: 48 hours, FIG. 7B", "method": "1×10^5 naïve CD4SP T cells were stimulated for 48 hours on a plate on which an anti-CD3 antibody (10 μg/mL) and an anti-CD28 antibody (10 μg/mL) were immobilized. The cell supernatant was collected and the production of the type I interferon INF-α was examined by ELISA using an anti-INF-α antibody. In innate immune cells, type I interferons are produced by the activation of TBK1 and its downstream IRF3 and IRF7. Therefore, T cells from TBK1 heteromice (Tbk1+/−) and TBK1-deficient mice (Tbk1−/−) were used (see, J Exp Med, Vol. 199, 1641-1650, 2004). The result was as illustrated in FIG. 6A.\n(§1) Next, involvement of IRF3 and IRF7 in the effect of inhibiting cellular proliferation and the effect of increasing production of INF-α through STING were examined. Specifically, T cells from IRF3-deficient mice or IRF3/IRF7 double deficient mice (see Immunity, Vol. 13, 539-548, 2000; Nature, Vol. 434, 772-777, 2005) were stimulated by anti-CD3/CD28 antibodies in the presence or absence of cGAMP. 48 hours later, the proliferation of the cells and the production of INF-α were examined as described above. The results were as illustrated in FIGS. 7A and 7B."}, "[2]": {"test_system": "cell cycle-related factors in naïve CD4SP T cells", "test": "Gene expression of cell cycle-related factors by quantitative PCR", "settings": "anti-CD3/CD28 antibodies 24 hours, FIG. 3", "method": "As described in (1) above, naïve CD4SP T cells were stimulated with anti-CD3/CD28 antibodies for 24 hours in the presence or absence of cGAMP. Subsequently, the gene expression of cell cycle-related factors was examined by quantitative PCR according to a conventional method. The result was as illustrated in FIG. 3."}, "[3]": {"test_system": "naïve CD4SP T cells", "test": "Cell survival rate of naïve CD4SP T cells (apoptosis inducing effect)", "settings": "cGAMP 10 or 30 μg/mL, 15 hours, FIG. 2"}, "[4]": {"test_system": "lipid synthesis genes that are induced by the activation of mTORC1", "test": "Expression levels of lipid synthesis genes by quantitative PCR", "settings": "FIG. 5", "method": "Moreover, the expression levels of lipid synthesis genes that are induced by the activation of mTORC1 were analyzed by quantitative PCR. The result was as illustrated in FIG. 5."}, "[5]": {"test_system": "mTOR Complex 1 (mTORC1) signaling", "test": "Phosphorylated level of signal molecules by western blotting", "settings": "anti-CD3/CD28 antibodies 24 hours, FIG. 4", "method": "As a signal molecule that is involved in the expression of cell proliferation-related genes, the activation level of mTOR Complex 1 (mTORC1) signaling was analyzed. Specifically, as described in (1) above, naïve CD4SP T cells were stimulated with anti-CD3/CD28 antibodies for 24 hours in the presence or absence of cGAMP. Subsequently, the phosphorylated level of indicated factors was evaluated with antibodies specific to the phosphorylated form by western blotting. As primary antibodies, the antibodies set forth in the following were used. The following primary antibodies were manufactured by Cell Signaling Technology, Inc. and the catalog numbers are indicated in the parentheses.\nAnti-phospho-IRF3 (#4947)\nAnti-phospho-STAT5 (#9351)\nAnti-phospho-Jak3 (#5031)\nAnti-phospho-STING (#13647)\nAs a second antibody, Goat anti-Rabbit IgG (H+L) Secondary Antibody, HRP from Thermo Fisher Scientific Inc. was used. Phosphorylated proteins were detected according to a manufacturer manual. The result was as illustrated in FIG. 4."}, "[6]": {"test_system": "naïve CD4SP T cells", "test": "Cell proliferation of naïve CD4SP T cells under anti-CD3/anti-CD28 stimulation (OD 450 nm)", "settings": "for effect of inhibiting cellular proliferation by cGAMP: FIG. 7A", "method": "Wild type mice and STING-deficient mice were used. As acquired immune lymphocytes, T cells (in particular naïve CD4SP T cells) were used. Naïve CD4SP T cells were obtained as a CD4^+ CD25^− CD62L^+ fraction from murine spleen by sorting using FACSAria. As a STING ligand, cyclic [G(2′,5′)pA(3′,5′)p] (hereinafter, simply referred to as “cGAMP”) was used. cGAMP (manufactured by Invitrogen, Cat. No.: tlrl-nacga23-1) was used at a working concentration of 3 μg/mL, 10 μg/mL, or 30 μg/mL. The obtained T cells were stimulated with an anti-CD3 antibody (10 μg/mL) and an anti-CD28 antibody (10 μg/mL) in the presence or absence of cGAMP. […] The cells were treated for 48 hours and then the cell proliferation was measured by the optical density (OD 450 nm). The result was as illustrated in FIG. 1.\nMoreover, the involvement of TBK1 in the function to inhibit cell proliferation by cGAMP was examined using TBK1 heterozygous mice and TBK1 knockout mice. The result was as illustrated in FIG. 6B.\nas §1"}},
  "data": [
    {"smiles": "Nc1nc2c(ncn2[C@@H]2O[C@@H]3COP(=O)(O)O[C@H]4[C@@H](O)[C@H](n5cnc6c(N)ncnc65)O[C@@H]4COP(=O)(O)O[C@@H]2[C@@H]3O)c(=O)[nH]1", "note": "[cGAMP, cyclic [G(2′,5′)pA(3′,5′)p]]", "values": [
      {"measurement": "effect of increasing production of INF-α by cGAMP", "setting": "[1]; IRF3/IRF7 double deficient mice", "result": "almost completely disappeared"},
      {"measurement": "effect of increasing production of INF-α by cGAMP", "setting": "[1]; IRF3 deficient mice", "result": "almost completely disappeared"},
      {"measurement": "increase in production of INF-α by cGAMP", "setting": "[1]; TBK1-deficient mice (Tbk1−/−) versus Tbk1+/−, FIG. 6A", "result": "decreased by TBK1 knockout"},
      {"measurement": "INF-α production in T cells", "setting": "[1]; anti-CD3/anti-CD28 stimulation 48 hours, ELISA of supernatant, FIG. 6A", "result": "prominent increase"},
      {"measurement": "expression of Cdk1", "setting": "[2]", "result": "inhibited"},
      {"measurement": "expression of Cdk4", "setting": "[2]", "result": "inhibited"},
      {"measurement": "expression of cyclin A2", "setting": "[2]", "result": "inhibited"},
      {"measurement": "expression of cyclin B1", "setting": "[2]", "result": "inhibited"},
      {"measurement": "expression of cyclin D3", "setting": "[2]", "result": "inhibited"},
      {"measurement": "expression of p21", "setting": "[2]", "result": "increased"},
      {"measurement": "apoptosis-inducing effect", "setting": "[3]; etoposide 10 μM", "result": "any prominent apoptosis-inducing effect was not found"},
      {"measurement": "cell survival rate", "setting": "[3]", "result": "decreased to some extent in a concentration-dependent manner"},
      {"measurement": "expression levels of lipid synthesis-related genes", "setting": "[4]", "result": "decreased"},
      {"measurement": "level of phosphorylated 4E-BP1", "setting": "[5]", "result": "decreased"},
      {"measurement": "level of phosphorylated S6K", "setting": "[5]", "result": "decreased"},
      {"measurement": "effect of inhibiting cellular proliferation by cGAMP", "setting": "[6]; IRF3/IRF7 double deficient mice, 48 hours", "result": "largely decreased"},
      {"measurement": "effect of inhibiting cellular proliferation by cGAMP", "setting": "[6]; IRF3 deficient mouse, 48 hours", "result": "partially decreased"},
      {"measurement": "effect on the number of naïve CD4SP T cells", "setting": "[6]; STING-deficient mice (STING−/−), anti-CD3/anti-CD28 stimulation, 48 hours, FIG. 1", "result": "limited"},
      {"measurement": "effect of Tbk1 knockout on inhibition of cell proliferation by cGAMP", "setting": "[6]; TBK1 knockout versus TBK1 heterozygous mice, FIG. 6B", "result": "almost no effect"},
      {"measurement": "degree of effect on the number of cells compared with etoposide", "setting": "[6]; cGAMP versus 10 μM etoposide, 48 hours, FIG. 1", "result": "acted in a degree similar to etoposide"},
      {"measurement": "number of naïve CD4SP T cells (cell proliferation, OD 450 nm)", "setting": "[6]; wild type mice (STING+/+), cGAMP 3, 10 or 30 μg/mL, anti-CD3/anti-CD28 stimulation, 48 hours, FIG. 1", "result": "decreased in a concentration-dependent manner"}
    ]},
    {"smiles": "COc1cc([C@@H]2c3cc4c(cc3[C@@H](O[C@@H]3O[C@@H]5CO[C@@H](C)O[C@H]5[C@H](O)[C@H]3O)[C@H]3COC(=O)[C@H]23)OCO4)cc(OC)c1O", "note": "[etoposide]", "values": [
      {"measurement": "number of cells (cell proliferation, OD 450 nm)", "setting": "[6]; etoposide 10 μM, STING+/+ and STING−/−, 48 hours, FIG. 1", "result": "decreased independent of the STING genotype"}
    ]}
  ]
}
